Assay results: patent US11912682B2, “Isoindolinone compounds” (Monte Rosa Therapeutics, Inc., priority 2021, dated 2024)
Where two headings read alike, the source gives them in different places.

How the values were obtained:
[1] = biological target: Full length wild-type cereblon CRBN (Homo sapiens (Human), UniProt Q96SW2); assay: fluorescence polarization (FP) assay, cereblon binding
Text: Compound activity was monitored in a fluorescence polarization (FP) homogeneous assay using 1-[5-({2-[2-(2-{[2-(2,6-dioxopiperidin-3-yl)-1,3-dioxo-2,3-dihydro-1H-isoindol-4-yl]oxy}acetamido)ethoxy]ethyl}carbamoyl)pentyl]-3,3-dimethyl-2-[(1E,3E)-5-[(2E)-1,3,3-trimethyl-5-sulfo-2,3-dihydro-1H-indol-2-ylidene]penta-1,3-dien-1-yl]-3H-indol-1-ium-5-sulfonate as a fluorescent probe. Unless otherwise stated, all reagents were purchased from Sigma Aldrich. […] Full length wild-type cereblon CRBN (80.0 nM, 10 μL) was incubated in assay buffer containing 20 mM HEPES (pH 8.0), […], 0.5 mM TCEP and 0.05% Tween 20 in the presence or absence of compound (300 nL). Inhibitors were stored as 10 mM DMSO stocks in an inert environment (low humidity, dark, low oxygen, room temperature) using the Storage Pod System. […] Following incubation at room temperature for 30 min, the assay was initiated by dispensing the probe to a final concentration of 5 nM (2.5 nL of a 20 μM stock) using the Echo ESXX. […] The FP signal was subsequently normalized to the no-compound control (i.e., DMSO). Analysis and IC50 values were derived using Dotmatics (Dotmatics UK) software.

GSPT1 = GSPT1 (Homo sapiens (Human), UniProt P15170+Q96SW2); assay: immunofluorescence assay for GSPT1 degradation in CAL-51 cells (Example 4); format: cell-based
Experimental: The representative compounds were tested in an immunofluorescence assay for their activity to bind to degrade GSPT1. CAL-51 cells were purchased from DSMZ (cat. Number ACC302), sub-cultured in 90% Dulbecco's MEM (4.5 g/L glucose, Gibco 11965) +10% heat inactivated FBS (BioConcept, 2-01F136I) and incubated at 37° C., 5% CO2. For the assay, imaging microtiterplate Cell Carrier 96 Ultra (Perkin Elmer 6055302) were pre-coated with Fibronectin (Sigma F085, 30 μl at 0.2 μg/ml) in PBS (100 μl, Gibco 14190) for 45 min at room temperature, rinsed with PBS and CAL-51 cells (30 K cells/well) were plated and let to adhere overnight. Cells were treated with compounds typically using a serial dilution ranging from 30 μM to 0.1 nM for 6 hours. Compounds were stored at 10 mM DMSO stocks. Vehicle (DMSO), positive (CC-885, 10 μM) and rescue controls (positive control plus 0.2 μM bortezomib) were also included atthis stage. Cells were subsequently rinsed with PBS and fixed in 10% Formalin solution (50 μl, Sigma HT5011)) for 20 mins at room temperature. Following three consecutive PBS washes (100 μl), cells were permeabilized in 0.1% Triton X-100 in PBS (Sigma 93443, 50 μl) for 15 mins at room temperature. Following three further PBS washes, 50 μl blocking buffer (1% BSA, Sigma A4503, in PBS) was added for 45 min for signal-to-noise reduction.
Primary antibody (human GSPT1, Sigma HPA052488) was diluted in blocking buffer (dil.1/300, 35 μl/well) and incubated with the cells overnight at 4° C. After three PBS washes, Alexa-fluor 488 coupled secondary antibodies (Invitrogen, A32731, dil.1/1000), Alexa-fluor 647-Phalloidin (Invitrogen, A22287, dil.1/200) and DAPI (Thermo, #62248, dil.1/1000) were diluted in blocking buffer and incubated with the samples for 2 hours at room temperature. After three final PBS washes, samples were conserved in 100 μl PBS in the dark, until measurement. Image acquisition was performed on the Operetta High-Content Imager (Perkin-Elmer). Fluorescence intensity of Alexa-Fluor 488 (GSPT1), Alexa-Fluor 647 (Actin) and DAPI (Nucleus) were measured. For the determination of GSPT1 DC50 values, a custom algorithm implemented in the PerkinElmer image analysis software Harmony-Acapella® was developed. After user-defined setting of adjustment parameters, the analysis was run identically without human intervention for all image fields. DAPI staining of the nuclei was used to determine the location of cells using standard nuclei detection modules. Segmentation artifacts were removed by threshold-based filters for area, roundness and intensity. The outline of the cells was determined analogously from the sum of the normalized, smoothed DAPI and Actin channel, starting from each nucleus. The Alexa-Fluor 488 (GSPT1) signal intensity in each cell was finally measured, in order to obtain a Mean intensity per cell. GSPT1 degradation (DC50) was calculated after normalization to controls and data import in CDD vault Database, using non-linear regression.

[2] = 6 hours, read-out: Activity for GSPT1 degradation, Code (DC50)
[3] = GSPT1 degradation, read-out: DC50 value

Chain of Full length wild-type cereblon CRBN (Q96SW2 whole entry): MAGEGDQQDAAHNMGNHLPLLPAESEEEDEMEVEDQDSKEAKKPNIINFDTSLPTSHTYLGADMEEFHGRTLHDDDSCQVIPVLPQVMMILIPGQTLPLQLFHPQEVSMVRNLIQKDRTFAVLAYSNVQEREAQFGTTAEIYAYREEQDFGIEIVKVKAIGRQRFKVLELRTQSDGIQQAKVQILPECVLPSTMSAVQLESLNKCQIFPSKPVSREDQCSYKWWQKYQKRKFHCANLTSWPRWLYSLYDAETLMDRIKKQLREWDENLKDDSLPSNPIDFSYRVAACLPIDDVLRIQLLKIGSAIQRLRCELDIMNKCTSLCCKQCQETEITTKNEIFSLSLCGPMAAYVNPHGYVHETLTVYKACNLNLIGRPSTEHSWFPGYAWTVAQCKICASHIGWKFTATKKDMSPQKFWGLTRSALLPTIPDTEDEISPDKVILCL
Chain of GSPT1 (P15170 whole entry): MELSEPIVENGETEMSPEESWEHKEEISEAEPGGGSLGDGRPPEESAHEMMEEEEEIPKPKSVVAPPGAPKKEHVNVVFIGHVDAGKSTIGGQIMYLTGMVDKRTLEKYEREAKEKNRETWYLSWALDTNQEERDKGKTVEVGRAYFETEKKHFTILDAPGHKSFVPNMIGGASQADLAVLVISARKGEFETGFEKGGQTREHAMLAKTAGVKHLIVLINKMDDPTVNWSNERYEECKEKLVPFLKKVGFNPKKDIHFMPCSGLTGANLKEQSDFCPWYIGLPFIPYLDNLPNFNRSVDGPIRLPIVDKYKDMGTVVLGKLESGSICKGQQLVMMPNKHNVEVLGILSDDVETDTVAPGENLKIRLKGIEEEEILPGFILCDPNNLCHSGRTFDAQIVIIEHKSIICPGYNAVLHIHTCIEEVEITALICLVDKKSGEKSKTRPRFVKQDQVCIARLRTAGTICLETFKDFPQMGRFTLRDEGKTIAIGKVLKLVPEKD
Chain of GSPT1 (Q96SW2 whole entry): as the sequence (Q96SW2 whole entry) above
Chain of GSPT1 (Q16531 2-1140 partner): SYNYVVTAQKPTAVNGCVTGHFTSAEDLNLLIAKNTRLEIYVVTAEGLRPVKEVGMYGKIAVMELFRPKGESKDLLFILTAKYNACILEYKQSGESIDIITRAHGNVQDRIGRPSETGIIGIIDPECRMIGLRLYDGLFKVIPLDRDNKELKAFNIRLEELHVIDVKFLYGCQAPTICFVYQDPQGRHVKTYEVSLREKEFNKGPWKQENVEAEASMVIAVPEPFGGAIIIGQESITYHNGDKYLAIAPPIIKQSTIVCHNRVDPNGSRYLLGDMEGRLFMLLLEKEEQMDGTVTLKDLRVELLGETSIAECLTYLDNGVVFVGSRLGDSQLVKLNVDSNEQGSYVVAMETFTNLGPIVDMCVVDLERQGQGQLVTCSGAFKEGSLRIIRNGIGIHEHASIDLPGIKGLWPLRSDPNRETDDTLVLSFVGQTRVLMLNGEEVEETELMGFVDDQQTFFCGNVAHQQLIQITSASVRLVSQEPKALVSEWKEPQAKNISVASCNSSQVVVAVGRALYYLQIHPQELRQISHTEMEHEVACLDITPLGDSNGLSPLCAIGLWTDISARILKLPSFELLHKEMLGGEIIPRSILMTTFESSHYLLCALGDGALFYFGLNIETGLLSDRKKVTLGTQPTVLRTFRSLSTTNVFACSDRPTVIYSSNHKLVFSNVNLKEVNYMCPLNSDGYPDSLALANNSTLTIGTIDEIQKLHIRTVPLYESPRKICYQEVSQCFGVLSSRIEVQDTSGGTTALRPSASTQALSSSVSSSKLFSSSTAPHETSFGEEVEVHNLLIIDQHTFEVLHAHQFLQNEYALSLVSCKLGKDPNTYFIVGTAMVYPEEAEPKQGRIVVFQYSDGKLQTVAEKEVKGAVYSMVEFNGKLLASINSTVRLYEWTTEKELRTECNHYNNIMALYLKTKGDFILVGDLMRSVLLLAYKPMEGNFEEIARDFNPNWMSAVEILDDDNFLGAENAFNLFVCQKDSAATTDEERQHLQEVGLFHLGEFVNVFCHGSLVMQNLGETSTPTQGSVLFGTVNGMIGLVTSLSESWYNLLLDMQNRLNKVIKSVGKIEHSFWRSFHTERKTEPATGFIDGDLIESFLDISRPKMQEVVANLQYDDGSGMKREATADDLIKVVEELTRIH

SMILES | IC50 ([1]; read-out: IC50 value) [nM] | DC50 (GSPT1; [2]) [nM] | DC50 (GSPT1; [3]) [nM] | IC50 ([1]; read-out: rFP IC50) [nM]
CCc1cc(NC(=O)OCc2ccc3c(c2)C(=O)N(C2CCC(=O)NC2=O)C3)cnc1C (stereo not shown) [Compound 55] | < 1100 | < 30 | ≤ 30 | –
Cc1ncc(NC(=O)OCc2ccc3c(c2)C(=O)N(C2CCC(=O)NC2=O)C3)cc1OC(F)(F)F (stereo not shown) [Compound 91] | < 1100 | < 30 | ≤ 30 | –
Cc1ccccc1-c1ccc(NC(=O)OCc2ccc3c(c2)C(=O)N(C2CCC(=O)NC2=O)C3)cn1 (stereo not shown) [Compound 86] | < 1100 | < 30 | ≤ 30 | –
O=C1CCC(N2Cc3ccc(COC(=O)Nc4ccc(C5CCC5)nc4)cc3C2=O)C(=O)N1 (stereo not shown) [Compound 105] | < 1100 | 30 to 300 | – | –
O=C1CCC(N2Cc3ccc(COC(=O)Nc4cc(OCCN5CCOCC5)cc(OC(F)(F)F)c4)cc3C2=O)C(=O)N1 (stereo not shown) [Compound 106] | < 1100 | 30 to 300 | – | –
Cc1ccc(NC(=O)OCc2ccc3c(c2)C(=O)N(C2CCC(=O)NC2=O)C3)cc1OC(F)F (stereo not shown) [Compound 24] | < 1100 | < 30 | ≤ 30 | –
CC(NC(=O)OCc1ccc2c(c1)C(=O)N(C1CCC(=O)NC1=O)C2)c1ccccc1 (stereo not shown) [Compound 102] | < 1100 | > 300 | – | –
CC1COc2cc(NC(=O)OCc3ccc4c(c3)C(=O)N(C3CCC(=O)NC3=O)C4)ccc21 (stereo not shown) [Compound 103] | < 1100 | 30 to 300 | – | –
O=C1CCC(N2Cc3ccc(COC(=O)NC45CC(c6ccccc6)(C4)C5)cc3C2=O)C(=O)N1 (stereo not shown) [Compound 126, (2-(2,6-dioxopiperidin-3-yl)-3-oxoisoindolin-5-yl)methyl (3-phenylbicyclo[1.1.1]pentan-1-yl carbamate] | – | < 30 | ≤ 30 | < 500
O=C1CCC(N2Cc3ccc(COC(=O)Nc4cnc5c(c4)CCC5)cc3C2=O)C(=O)N1 (stereo not shown) [Compound 53] | < 1100 | 30 to 300 | – | –
Cc1cc(NC(=O)OCc2ccc3c(c2)C(=O)N(C2CCC(=O)NC2=O)C3)ccc1-c1ccccc1 (stereo not shown) [Compound 137, (2-(2,6-dioxopiperidin-3-yl)-3-oxoisoindolin-5-yl)methyl(2-methyl-[1,1′-biphenyl]-4-yl)carbamate] | – | < 30 | ≤ 30 | > 1700
COc1ccccc1-c1ccc(NC(=O)OCc2ccc3c(c2)C(=O)N(C2CCC(=O)NC2=O)C3)cn1 (stereo not shown) [Compound 87] | < 1100 | < 30 | ≤ 30 | –
O=C1CCC(N2Cc3ccc(COC(=O)Nc4cc(OC(F)(F)F)ccn4)cc3C2=O)C(=O)N1 (stereo not shown) [Compound 59] | – | 30 to 300 | – | < 500
CC1(c2ccc(NC(=O)OCc3ccc4c(c3)C(=O)N(C3CCC(=O)NC3=O)C4)cc2)CC1 (stereo not shown) [Compound 58] | < 1100 | < 30 | ≤ 30 | –
O=C1CCC(N2Cc3ccc(COC(=O)Nc4ccc(C5COC5)cc4)cc3C2=O)C(=O)N1 (stereo not shown) [Compound 81] | – | 30 to 300 | – | < 500
Cc1c(Cl)cc(NC(=O)OCc2ccc3c(c2)C(=O)N(C2CCC(=O)NC2=O)C3)cc1CN1CCOCC1 (stereo not shown) [Compound 2] | < 1100 | < 30 | ≤ 30 | –
CC(C)(C)c1cc(NC(=O)OCc2ccc3c(c2)C(=O)N(C2CCC(=O)NC2=O)C3)ccn1 (stereo not shown) [Compound 114] | – | < 30 | – | < 500
